Holding throughout (experiment): NCI tumour cell line growth inhibition, 48 h
The test system of test [1] is HCT-116 colon.
In test [2] the test system is HL-60(TB) leukemia.
The subject of test [3] is MDA-MB-231 breast.
The test system of test [4] is MDA-MB-435.
Test [5] concerns NCI/ADR-RES ovarian.
For test [6], the system named is RXF 393 renal.
In test [7] the test system is SF-268 CNS.
Test [8] relates to SF-295 CNS.
Test [9] relates to SNB-19 CNS.
The test system of test [10] is SNB-75 CNS.

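Test compounds were applied to cells in 96-well plates for 48 hours at 5 doses. Here, GI50 denotes the concentration required for 50% inhibition of growth. At the TGI there is no net growth.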

On to `O=C1/C(=C/c2ccc(O)cc2)CSc2ccc(Cl)cc21`, for which the GI50 in [1] is 7.08 µM; in test [2], 2.27 µM; in test [3], 17.8 µM; in test [4], 4.54 µM; in test [5], 18.7 µM; in [6] it was 17.9 µM. The GI50 is 15.4 µM in test [7], 18.2 µM in test [8], 14.1 µM in test [9] and 18.3 µM in [10]. Moreover, the TGI in [1] was > 100 µM; in test [2], > 100 µM; in test [3], 44.3 µM; in [4], 25.3 µM; in [5], > 100 µM; in [6] it was 37.7 µM. Further, the TGI came out at 41.3 µM in test [7], 40.1 µM in [8], 27.4 µM in test [9] and 54.8 µM in test [10].

For the compound `CSc1nc2cc(S(=O)(=O)N3CCCCC3)ccc2s1`, the TGI in test [1], in test [2], in test [3], in test [4], in test [5] and in test [6] was > 100 µM each time. Further, the TGI in [7], in [8], in test [9] and in test [10] was > 100 µM throughout.

In the case of `Clc1ccc(-c2c(C3=NCCCN3)nnn2-c2ccc(Cl)cc2)cc1`, the TGI was > 75.6 µM in test [1]; 48.1 µM in test [2]; > 77.7 µM in [3]; 35.9 µM in [4]; > 86.4 µM in test [5]; 68.8 µM in test [6]. Moreover, the TGI in test [7] is > 83.2 µM; in [8], > 77.2 µM; in test [9], > 85.3 µM; in test [10], > 72.2 µM.

For the compound `CC1(C)N=C(N)N=C(N)N1c1ccc(OCc2ccc(S(=O)(=O)F)c(Cl)c2)c(Cl)c1`, the GI50 in test [1] is 0.51 µM; in [2], 1.35 µM; in test [3], > 100 µM; in test [4], 0.558 µM; in test [5] it was 60 µM; in test [6] it was 18.7 µM. Further, the GI50 was 2.85 µM in [7], 3.88 µM in test [8], 6.76 µM in test [9] and 4.92 µM in test [10]. For the same compound, the TGI in test [1], in test [2], in test [3], in test [4], in test [5] and in test [6] was > 100 µM throughout. The TGI in [7], in test [8], in test [9] and in [10] was > 100 µM throughout.

`O=C(O)[C@@H]1CCCCN1Cc1cc2cc3c(cc2c2cc(OCc4ccccc4)ccc12)OCO3`: the GI50 in test [1] is 17.4 µM; in test [2] it was > 100 µM; in [3], 1.9 µM; in [4] it was 3.4 µM; in test [5], 19.3 µM; in test [6], 6.05 µM. In addition, the GI50 in [7] was 2.98 µM; in test [8] it was 1.95 µM; in test [9], 2.31 µM; in [10] it was 2.96 µM. Moreover, the TGI in [1] was 31.1 µM; in test [2], > 100 µM; in [3], 6.21 µM; in [4], 17.5 µM; in test [5], 39.6 µM; in test [6], 22.6 µM. The TGI in test [7] is 21.2 µM; in test [8], 8.3 µM; in [9] it was 8.86 µM; in test [10], 8.91 µM.

`COC(=O)c1c(C)[nH]c(/C=C2\N=C(c3ccc[nH]3)C=C2OC)c1C`: the GI50 was 0.0378 µM in test [1]; 0.164 µM in [2]; 0.169 µM in test [3]; 0.108 µM in test [4]; 0.109 µM in test [5]; 0.515 µM in [6]. The GI50 is 0.26 µM in test [7], 0.983 µM in [8], 1.87 µM in test [9] and 0.399 µM in [10]. Also, the TGI in test [1] came out at 1.2 µM; in test [2], 2.33 µM; in test [3] it was 1.27 µM; in [4], 1.46 µM; in test [5] it was 4.6 µM; in test [6], 4.27 µM. In addition, the TGI was > 100 µM in test [7], 3.44 µM in [8], > 100 µM in test [9] and 3.24 µM in [10].

On to `C/C=C(\C)CC/C=C/CO[Si](C)(C)C(C)(C)C`, for which the TGI in test [1] is > 100 µM; in [2] it was 52.1 µM; in test [3], > 100 µM; in test [4], > 100 µM; in test [5] it was > 100 µM; in test [6], > 100 µM. For the same compound, the TGI in test [7], in [8], in [9] and in test [10] was > 100 µM in each case.

`Fc1ccc(-c2nn3ncccc3c2-c2ccnc(Nc3ccc4c(c3)OCCO4)n2)cc1`: the GI50 in [1] was 3.05 µM; in [2] it was 5.01 µM; in test [3], 1.22 µM; in test [4] it was 4.9 µM; in test [5] it was 5.73 µM; in test [6], 1.07 µM. The GI50 in [7] is 7.36 µM; in [8], 6.35 µM; in test [9], 19.4 µM. The TGI is 7.09 µM in [1]; 13.8 µM in test [2]; 6.01 µM in [3]; > 21.5 µM in test [4]; > 25 µM in test [5]; 7.22 µM in test [6]. Besides, the TGI in test [7] was > 25 µM; in test [8], 18.6 µM; in test [9] it was > 25 µM; in [10], > 25 µM.

The record behind these values is PubChem BioAssay (NCI).
